Values after ≈ are worked out from the molar mass of the structure shown. Blank lines part the entries; values can stand above or below the molecule they belong to.
Columns and labels:
E-coli bacteria = test: Anti-microbial activity (antibacterial, inhibition zone and MIC); format: cell-based
colon cancer cell line = test: Anti-cancer activity against colon cancer cell line; format: cell-based; details: read-out: IC50 (anticancer activity)
breast cancer cell line = test: Anti-oxidant activity; details: against the breast cancer cell line (so in the source)

- MIC (E-coli bacteria; Escherichia coli): 2.25 µg/mL (≈ 6.23 µM)
Structure (SMILES): CC1COc2c(N3CCN(C)CC3)c(F)cc3c(=O)c(C(=O)O)cn1c23 (stereo not shown) [Ofloxacin, reference compound]
- inhibition zone (E-coli bacteria): 30 mm

- IC50 (colon cancer cell line): 4.7 µg/mL (≈ 5.8 µM)
Structure (SMILES): CC[C@]1(O)C[C@@H]2CN(CCc3c([nH]c4ccccc34)[C@@](C(=O)OC)(c3cc4c(cc3OC)N(C)[C@H]3[C@@](O)(C(=O)OC)[C@H](OC(C)=O)[C@]5(CC)C=CCN6CC[C@]43[C@@H]65)C2)C1 [vinblastine, reference compound]

- IC50 (Antioxidant activity) (breast cancer cell line): 55.2 µg/mL (≈ 313 µM)
Structure (SMILES): O=C1O[C@H]([C@@H](O)CO)C(O)=C1O [1-ascorbic acid, reference compound]

From patent publication US11873313B1, “Development of novel tetra nuclear distorted square anti-prism Dy (III) imine complex for pharmaceutical and industrial applications” (KING FAISAL UNIVERSITY, priority 2023, dated 2024)
